Here are results for one molecule from patent US12064448B2, “Methods for reducing bioavailability and absorption of ingested substances” (Nanyang Technological University, priority 2017, dated 2024).

This assay has as its system pancreatic lipase. As to the kind of experiment: 3-phase simulated digestion, pH-stat titration of fatty acids released in small intestinal phase. Type of assay: biochemical. The following applies: heavy cream, 13.3% fat, orlistat 4.8 mg/ml.

Structures are written as SMILES.

Source text: Corn oils was purchased from Sigma, Inc. These aforementioned fat food models were combined with nanocellulose or other control fibers including psyllium husk (Sigma) and wheat dextrin (Sigma) or the lipase inhibitor orlistat (Sigma). To combine test materials with cream, water, cream and the test material were combined to achieve the desired final concentrations of each, and the mixture was vortexed for 30 seconds. To combine test fibers with corn oil, the oil and water components were first combined and homogenized at high speed for 1 minute. Fibers or orlistat were then added to the emulsion and the mixture was vortexed for 30 seconds.
In vivo simulated digestion was performed using a 3-phase (mouth, stomach, small intestine) method. Briefly, in the mouth phase of the gastrointestinal tract (GIT) simulator, the nano-enabled food was mixed with a simulated saliva fluid and incubated at 37° C. for 10 seconds. The resultant mouth digesta was then combined and incubated with a simulated gastric fluid and incubated for 2 hours at 37° C. on an orbital shaker to complete the stomach phase. […] Free fatty acid (FFA) at the beginning of the intestinal phase (before addition of lipase) and in the final digesta was measured using a fluorometric assay kit (Cayman Chemical Cat #700310). […]

In the case of `CCCCCCCCCCC[C@@H](C[C@@H]1OC(=O)[C@H]1CCCCCC)OC(=O)[C@H](CC(C)C)NC=O` [orlistat], the “reduction of lipase activity (NaOH titrant used, percentage of total free fatty acids released)” value is reported as 91.5%.
